Where “and” joins values, the source holds several entries; their conditions need not be identical. Equal values may be shown once.
Key:
[1] = target: T1, mP2X7R (Mus musculus, UniProt Q9Z1M0); assay: TEVC dose response of ATP at mP2X7R in Xenopus oocytes; format: cell-based
T1 construct: expressed in transfected cells
T1 sequence (Q9Z1M0 1-595): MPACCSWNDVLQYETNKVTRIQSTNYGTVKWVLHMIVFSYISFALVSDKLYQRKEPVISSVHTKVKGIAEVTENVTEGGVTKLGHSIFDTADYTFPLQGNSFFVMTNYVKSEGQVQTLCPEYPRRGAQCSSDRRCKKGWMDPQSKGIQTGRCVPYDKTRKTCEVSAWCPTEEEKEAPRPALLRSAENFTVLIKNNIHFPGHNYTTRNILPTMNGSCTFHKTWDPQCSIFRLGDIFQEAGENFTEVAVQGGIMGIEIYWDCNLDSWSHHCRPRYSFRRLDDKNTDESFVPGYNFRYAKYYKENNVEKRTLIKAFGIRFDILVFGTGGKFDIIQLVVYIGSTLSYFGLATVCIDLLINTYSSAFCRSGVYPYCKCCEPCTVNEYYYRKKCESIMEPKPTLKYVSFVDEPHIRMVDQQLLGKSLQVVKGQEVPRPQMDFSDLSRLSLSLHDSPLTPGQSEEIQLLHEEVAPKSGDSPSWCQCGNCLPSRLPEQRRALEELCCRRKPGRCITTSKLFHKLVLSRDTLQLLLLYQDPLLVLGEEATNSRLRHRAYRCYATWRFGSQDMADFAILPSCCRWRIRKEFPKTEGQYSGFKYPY
Method: (§1) Defolliculated Xenopus laevis oocytes were purchased from Ecocyte Bioscience and kept in Modified Barth’s Solution (88 mM NaCl, 1 mM KCl, 0.82 mM MgSO4, 0.33 mM Ca(NO3)2·4H2O, 0.41 mM CaCl2·2H2O, 2.4 mM NaHCO3, 5 mM HEPES) supplemented with amikacin 250 mg/L and gentamycin 150 mg/L. Oocytes were then injected with 50 nL of either full-length wild-type hP2X7R (40 ng/μL), mP2X7R (20 ng/μL), or rP2X7R (20 ng/μL) mRNA made from linearized pcDNA 3.1x according to the protocol provided in the mMessage mMachine kit (Invitrogen). Injected oocytes were allowed to express for ~20 h before recording was performed.
(§2) Data acquisition was performed using an Oocyte Clamp OC-725C amplifier and pClamp 8.2 software. Buffers were applied using a gravity-fed RSC-200 Rapid Solution Changer, flowing at ~5 mL/min. All experiments use Sutter filamented glass 10 cm in length with an inner diameter of 0.69 mm and an outer diameter of 1.2 mm to impale oocytes and clamp the holding voltage at −60 mV. Experiments were recorded in buffer containing 100 mM NaCl, 2.5 mM KCl, 0.1 mM EDTA, 0.1 mM flufenamic acid, and 5 mM HEPES at pH 7.4.
(§3) This value is then averaged amongst each singular condition and reported as the mean ± SD.

[2] = target: rP2X7R; parameters: method as in PMID 39107314; conditions: BLI; read-out: equilibrium dissociation constant (KD), rP2X7R; cited from earlier work
[3] = target: T2, hP2X7R (Homo sapiens, UniProt Q99572); assay: Bio-layer interferometry (BLI), ATP binding to biotinylated hP2X7R
T2 sequence (Q99572 1-595): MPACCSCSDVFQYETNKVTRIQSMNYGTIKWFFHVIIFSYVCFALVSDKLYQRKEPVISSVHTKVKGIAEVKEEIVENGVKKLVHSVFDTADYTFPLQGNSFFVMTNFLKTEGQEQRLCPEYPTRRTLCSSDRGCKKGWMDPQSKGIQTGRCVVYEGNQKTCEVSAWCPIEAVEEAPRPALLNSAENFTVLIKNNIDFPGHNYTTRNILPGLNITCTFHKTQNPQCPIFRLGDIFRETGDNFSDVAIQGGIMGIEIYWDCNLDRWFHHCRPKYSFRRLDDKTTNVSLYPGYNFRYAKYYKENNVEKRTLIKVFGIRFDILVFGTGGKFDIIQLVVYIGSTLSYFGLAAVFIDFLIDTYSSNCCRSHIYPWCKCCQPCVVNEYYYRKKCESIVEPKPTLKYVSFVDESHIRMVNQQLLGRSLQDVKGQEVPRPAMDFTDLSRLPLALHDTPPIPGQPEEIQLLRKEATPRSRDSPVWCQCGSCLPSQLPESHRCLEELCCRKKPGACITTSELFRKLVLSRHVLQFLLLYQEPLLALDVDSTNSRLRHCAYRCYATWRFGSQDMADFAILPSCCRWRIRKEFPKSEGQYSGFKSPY
Method: Briefly, BLI experiments were performed at 30 °C in 384-well tilted-bottom plates (Sartorius) with orbital shaking at 1000 r.p.m. on a ForteBio Octet RED384 instrument (ForteBio Data Acquisition software 11.0) using pre-equilibrated (0.22 μm filtered PBS at pH 7.4 and 0.5 mM DDM from Anatrace) SA biosensor tips (Sartorious) loaded with 50 μg/mL of biotinylated hP2X7R ligand or biocytin (Sigma-Aldrich) control for 1800 s[34],[35]. The loaded SA sensors were blocked with 100 μg/mL of biocytin for 150 s and then washed with running buffer for 60 s. […] After data collection, rate constants for association and dissociation were determined using ForteBio Data Analysis HT 11.0 evaluation software. To maximize signal between the large ligand and small analyte, the raw data were double reference subtracted[34],[35]. For each interaction pair, the association rate constant (ka) and the dissociation rate constant (kd) were calculated with an average of three independent assays with at least four different concentrations that were globally fit to a 1:1 Langmuir binding model. The equilibrium dissociation constant (KD) was calculated as the ratio of kd to ka. The KD, ka, and kd values are reported as the average ± the standard deviation of three replicate datasets for each analyte, with each dataset using at least four independent traces. The analyzed data were exported and plotted in GraphPad Prism 9.0.

[4] = target: T3, rP2X7R (Rattus norvegicus, UniProt Q64663); assay: TEVC dose response of ATP at rP2X7R in Xenopus oocytes; format: cell-based; parameters: expressed in transfected cells; host or cells: Xenopus laevis oocytes injected with mRNA made from pcDNA 3.1x
T3 sequence (Q64663 1-595): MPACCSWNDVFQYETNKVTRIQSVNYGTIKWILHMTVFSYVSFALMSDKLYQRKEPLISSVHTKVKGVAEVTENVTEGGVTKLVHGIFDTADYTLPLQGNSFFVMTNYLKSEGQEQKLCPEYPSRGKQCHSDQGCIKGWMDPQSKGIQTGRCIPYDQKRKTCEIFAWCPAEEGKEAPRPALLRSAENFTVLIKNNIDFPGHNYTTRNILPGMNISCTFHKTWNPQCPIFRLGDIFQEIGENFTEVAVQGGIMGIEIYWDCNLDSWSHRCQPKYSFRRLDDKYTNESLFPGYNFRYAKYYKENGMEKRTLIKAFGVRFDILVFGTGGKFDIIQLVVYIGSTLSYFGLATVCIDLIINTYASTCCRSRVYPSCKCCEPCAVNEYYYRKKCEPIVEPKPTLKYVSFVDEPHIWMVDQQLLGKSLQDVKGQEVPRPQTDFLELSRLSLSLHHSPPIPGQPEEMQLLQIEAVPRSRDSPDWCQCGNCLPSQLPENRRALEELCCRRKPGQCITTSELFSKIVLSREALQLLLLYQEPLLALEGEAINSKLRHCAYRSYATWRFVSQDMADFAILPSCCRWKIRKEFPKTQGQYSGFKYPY
Method: as §1, §2, §3

[5] = target: T2, hP2X7R; assay: TEVC dose response of ATP at hP2X7R in Xenopus oocytes; format: cell-based; parameters: expressed in transfected cells; host or cells: Xenopus laevis oocytes injected with mRNA made from pcDNA 3.1x
Method: as §1, §2, §3

[6] = parameters: method as in PMID 39139642; conditions: cited from earlier work
[7] = system: P2X7R; conditions: cited from earlier work
[8] = target: the molecule itself; assay: cryo-EM structure; purified detergent-solubilised receptor (20 mM HEPES pH 7.0, 100 mM NaCl, 0.5 mM C12M); apo, or incubated with 900 uM ATP or antagonist at 3-4x the molar concentration of the monomer
[9] = [ATP] 3000 μM, single experiments

In the case of Nc1ncnc2c1ncn2[C@@H]1O[C@H](COP(=O)(O)OP(=O)(O)OP(=O)(O)O)[C@@H](O)[C@H]1O [ATP], the “Normalized response, mP2X7R” value ([1]; [ATP] 1.2 μM) is reported as 0.02 and 0.01, the “Normalized response, mP2X7R” value ([1]; [ATP] 3.7 μM) is reported as 0.017 and 0.013 and 0.009 and the “Normalized response, mP2X7R” value ([1]; [ATP] 37 μM) is reported as 0.27 and 0.22 and 0.15. For the same molecule, the “Normalized response, mP2X7R” value ([1]; [ATP] 1000 μM) was 1 and 0.88, the “Normalized response, mP2X7R” value [1, 9] was 1 and 0.9 and the EC50 ([1]; read-out: EC50 for ATP, mP2X7R, TEVC, absence of divalent cations, mean ± SD, triplicate) was 70 ± 17 µM. For the same molecule, the Kd [2] was 0.54 ± 0.23 µM, the “rate constant for association (ka)” value ([3]; BLI, 1:1 Langmuir model) was 7.4 ± 1.3 × 10^4 M^−1 s^−1 and the “rate constant for dissociation (kd)” value ([3]; BLI, 1:1 Langmuir model) was 4.8 ± 1.2 × 10^−2 s^−1. The Kd ([3]; BLI, mean ± SD, triplicate, read-out: equilibrium dissociation constant (KD), hP2X7R) was 0.65 ± 0.12 µM, the “KD higher than at the rP2X7R” value ([3]; hP2X7R vs rP2X7R) was ~ 20% and the “ka slower than for ATP binding to the rP2X7R” value ([3]; hP2X7R vs rP2X7R) was ~ 27%. For the same molecule, the “kd slower than for ATP binding to the rP2X7R” value ([3]; hP2X7R vs rP2X7R) was ~ 6%, the “Normalized response, rP2X7R” value ([4]; [ATP] 2 μM) was 0 and the “Normalized response, rP2X7R” value ([4]; [ATP] 37 μM) was 0.41 and 0.5375 and 0.6343. For the same molecule, the “Normalized response, rP2X7R” value ([4]; [ATP] 1000 μM) was 0.98 and 0.9571 and 0.9954, the “Normalized response, rP2X7R” value [4, 9] was 1 and 0.9691 and the EC50 ([4]; read-out: EC50 for ATP, rP2X7R, TEVC, absence of divalent cations, mean ± SD, triplicate) was 34 ± 8.4 µM. The “Normalized response, hP2X7R” value ([5]; [ATP] 37 μM) was 0.2 and 0.1456, the “Normalized response, hP2X7R” value ([5]; [ATP] 1000 μM) was 1 and 1.01 and 0.9474 and the “Normalized response, hP2X7R” value [5, 9] was 1.044 and 1.035 and 1.029. The EC50 ([5]; read-out: EC50 for ATP, hP2X7R, TEVC, absence of divalent cations, mean ± SD, triplicate) was 89 ± 8.3 µM.

For O=C(NCC12CC3CC(CC(C3)C1)C2)c1cc(CCCNCCCO)ccc1Cl [AZD9056], the “efficacy in phase II trials for rheumatoid arthritis” value [6] is listed as “limited efficacy”.

In the case of Clc1cccc(-c2nnnn2Cc2cccnc2)c1Cl [Compound A438079], the “inhibitory activity across human, mouse and rat orthologs” value [7] is listed as “equal inhibitory activity across all three orthologs”.

B1: full-length wild-type human P2X7 receptor (receptor, UniProt Q99572 1-595, looked up)
chain: T2 sequence (Q99572 1-595)
modifications: palmitoylation of residues in the C-cys anchor; limited glycosylation, acylation and palmitoylation modelled
notes: P2X7 receptor (P2X purinoceptor 7), human, full-length wild-type, no mutations or truncations; C-terminal HRV 3-C site, GFP and histidine tag removed during purification; Homotrimeric ion channel; also called hP2X7R; hP2X7; not shown: GFP, C-terminal, cleaved
In the case of B1, the “stoichiometry N” value [8] is reported as 3.

B2: full-length wild-type mouse P2X7 receptor (receptor, UniProt Q9Z1M0 1-595, looked up)
chain: T1 sequence (Q9Z1M0 1-595)
modifications: palmitoylation of residues in the C-cys anchor
notes: P2X7 receptor (P2X purinoceptor 7), mouse, full-length wild-type, no mutations or truncations; C-terminal HRV 3-C site, GFP and histidine tag removed during purification; Homotrimeric ion channel; solved in the apo closed state; also called mP2X7R; mP2X7; not shown: GFP, C-terminal, cleaved
For B2, the “stoichiometry N” value [8] was 3.
